Test in all cases: DTP human tumour cell line panel, 48 h
Assay [1] concerns MALME-3M melanoma.
For assay [2], the system named is OVCAR-5 ovarian.
The subject of assay [3] is HCT-116 colon.
The subject of assay [4] is SF-268 CNS.
The test system of assay [5] is A498 renal.
Assay [6] relates to NCI-H226 lung.
The subject of assay [7] is U251 CNS.
In assay [8] the test system is HOP-62 NSCLC.
Assay [9] deals with SNB-19 CNS.

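How tested: cells in 96-well plates exposed to compound for 48 hours at five concentrations. Abbreviation: GI50, concentration required for 50% inhibition of growth. TGI denotes the concentration required for complete inhibition of growth.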

Broadly, the GI50 is the concentration giving 50% growth inhibition. As a reminder, the TGI is the concentration giving total growth inhibition. In the case of `Cc1[nH]c(C(=O)Nc2ccc(C(=O)N3CCNCC3)cc2OC(C)C)c(Cl)c1Cl`, the GI50 was 1.59 µM in assay [1]; 1.79 µM in [2]; 1.85 µM in assay [3]; 1.85 µM in assay [4]; 11.2 µM in assay [5]; 2.5 µM in assay [6]. For the same compound, the GI50 in [7] was 1.77 µM; in [8], 1.81 µM; in assay [9], 1.89 µM. Further, the TGI in assay [1] amounted to 3.05 µM; in [2], 4.04 µM; in assay [3] it was 3.41 µM; in assay [4], 3.81 µM; in assay [5], 24.7 µM; in assay [6] it was 5.79 µM. For the same compound, the TGI in assay [7] is 3.46 µM; in assay [8], 4.65 µM; in assay [9], 3.95 µM.
Consider `c1cc(C2CCCCC2)ccc1OCCCCCCN1CCNCC1`, for which the GI50 in assay [1] is 1.99 µM; in assay [2], 1.75 µM; in assay [5], 5.06 µM; in assay [6], 4.67 µM; in assay [7], 1.63 µM. The TGI in assay [1] came out at 3.86 µM; in assay [2], 3.5 µM; in assay [5] it was 26.5 µM; in [6], 26.4 µM; in assay [7], 3.17 µM.
Turning to `CN(C)C(=S)NN=C(c1ccccn1)c1ccccn1`, the 50% growth inhibitory concentration (GI50) in assay [1] is under 0.0331 µM; in assay [2], 0.045 µM; in assay [3], under 0.01 µM; in assay [4], under 0.0362 µM; in assay [5], 0.191 µM; in assay [6], 0.0445 µM. Also, the 50% growth inhibitory concentration (GI50) in assay [7] was under 0.01 µM; in assay [8], under 0.01 µM; in [9], 3.13 µM. The TGI in [1] was 0.503 µM; in assay [2], 27.4 µM; in assay [3], 11 µM; in assay [4], over 43.4 µM; in [5], 12.1 µM; in assay [6], 12.7 µM. For the same compound, the TGI in assay [7] is over 59.4 µM; in assay [8], 0.0273 µM; in [9], over 100 µM.
As for `N#CCCN(CCC#N)c1ccc(/C=C2\N=C(COc3ccc(Cl)cc3Cl)OC2=O)cc1`, the TGI in assay [1], in assay [2], in assay [3], in assay [4], in assay [5] and in assay [7] was over 100 µM in each case. Also, the concentration for total growth inhibition (TGI) in [8] and in assay [9] was over 100 µM throughout.
With `O=C(O)CNS(=O)(=O)c1ccc(NC(=O)c2ccc(F)cc2)cc1`, the TGI in [1], in assay [2], in assay [4], in assay [5], in assay [7] and in assay [9] was over 100 µM each time.
`COc1cc2c(cc1OCCCOC1=C=C=C(c3ccc4c(c3)c3cc(-c5ccc(OCCCOc6cc7c(cc6OC)C(=O)N6CCC[C@H]6C=N7)cc5)ccc3n4S(=O)(=O)c3ccc(C)cc3)C=C1)N=C[C@@H]1CCCN1C2=O`: the GI50 in assay [1] is 3.26 µM; in assay [2], 5.87 µM; in [3] it was 1.62 µM; in assay [4], 0.934 µM; in [5] it was 3.14 µM; in [6], 4 µM. The GI50 was 0.966 µM in assay [7], 1.99 µM in [8] and 3.5 µM in [9]. The concentration for total growth inhibition (TGI) in assay [1] was found to be 10.2 µM; in [2] it was 17.8 µM; in assay [3], 7.05 µM; in assay [4] it was 2.85 µM; in [5], 9.06 µM; in [6], 12.9 µM. Also, the TGI is 2.87 µM in assay [7], 8.6 µM in assay [8] and 38.7 µM in assay [9].
Turning to `COC(=O)Nc1nc2ccc(Oc3ccc(NC(=O)Nc4cccc(Br)c4)cc3)cc2[nH]1`, the GI50 is 1.41 µM in [1]; over 11.9 µM in assay [2]; 1.32 µM in [3]; 3.98 µM in assay [4]; 2.1 µM in assay [5]; 7.59 µM in assay [6]. Besides, the figures for the GI50 in assay [7], in [8] and in [9] were 1.78 µM, 1.24 µM and 8.31 µM, respectively. The TGI in assay [1] is 9.14 µM; in [2], over 25 µM; in assay [3], over 12.6 µM; in [4] it was over 25 µM; in assay [5], 17.4 µM; in [6] it was over 25 µM. Further, the TGI in [7] is 5.68 µM; in assay [8] it was 8.67 µM; in assay [9], over 25 µM.
Regarding `Oc1ccc2occ3c2c1CCC3`, the TGI in [3], in assay [5], in assay [7], in [8] and in assay [9] was over 100 µM in each case.
As for `CN(C)c1ccc(/C=C/C(=O)C(C)(C)C)cc1Br`, the TGI is over 100 µM in assay [1]; over 100 µM in assay [2]; 38.1 µM in [3]; 70 µM in [4]; over 100 µM in [5]; over 100 µM in assay [7]. The TGI in assay [8] and in [9] was over 100 µM each time.
As to `NC(N)=N/N=C/c1c(-c2cccs2)nc2sccn12`, the GI50 in [2] is 17.5 µM; in assay [3], 4.23 µM; in assay [4] it was 15.2 µM; in assay [5], 4.46 µM; in assay [6], 13.2 µM; in assay [7], 15.8 µM. Besides, the GI50 in [8] is 11.2 µM; in assay [9] it was 14.8 µM. Also, the TGI in assay [2] worked out at 31.3 µM; in assay [3], 17.7 µM; in assay [4], 29.1 µM; in assay [5] it was 13.6 µM; in [6], 26 µM; in [7], 33.9 µM. Also, the TGI in assay [8] came to 23.3 µM; in [9], 28.6 µM.

Source of the values: PubChem BioAssay (NCI).
